Source: US12350283B2, “Methods and compositions for treating motor neuron diseases” (UNIVERSITAT DE VALENCIA-ESTUDI GENERAL, priority 2019, dated 2025)

Tests used:
[1] = after oral administration; cited from earlier work
FUS-R521C mice = test: Survival of FUS-R521C mice; type: in vivo, mouse
Protocol: FUS-R521C mice (ALS model; transgene injected into B6SJL oocytes. Maintained on C57BL/6, therefore subsequent generations have a higher percentage of C57BL/6) were selected for methods examining the effects of the addition of acetylcysteine.
Acetylcysteine (NAC) was administered intraperitoneally (IP): 100 mg/kg per day, beginning on week 30, in experiments examining the effect of the addition of NAC.

SOD1-G93A mice [2] = test: Rotarod test in SOD1 mice; type: in vivo, mouse; conditions: for Rotarod test (maximum period on rotating axle): SOD1 mice, limit 1200 seconds, mean
Protocol: (§1) EH301 [Nicotinamide riboside (NR) and pterostilbene (PT)] was administered orally: 185 mg of nicotinamide riboside and 30 mg of pterostilbene/Kg×day (Estrela J M, De La Rubia J E, Dellinger R W. Treating and preventing motor neuron disease using nicotinamide riboside. PCT/US 18/32932, 2018).
(§2) Dexamethasone (DXM) was administered i.p. following sequential 4 weeks-cycle along the experimental time: 1 mg/Kg×day (1st week), 0.5 mg/Kg×day (2nd week), 0.25 mg/Kg×day (3rd week), 0.0 mg/Kg×day ([…]). The dose of 1 mg/Kg was selected based on Kurkowska-Jastrzebska I, Litwin T, Joniec I, Ciesielska A, Przybyłkowski A, Członkowski A, Członkowska A. Dexamethasone protects against dopaminergic neurons damage in a mouse model of Parkinson's disease. Int Immunopharmacol. 2004 October; 4(10-11):1307-18. The cyclic dose regime was designed to optimize the therapeutic benefit causing minimal possible side effects.
(§3) Ibudilast (IB) was administered orally: 12 mg/Kg×day (Wang H, Mei Zl, Zhong K L, Hu M, Long Y, Miao M X, Li N, Yan T H, Hong H. Pretreatment with antiasthmatic drug ibudilast ameliorates Aβ 1-42-induced memory impairment and neurotoxicity in mice. Pharmacol Biochem Behav. 2014 September; 124:373-9).
(§4) Daily doses of NR, DXM and IB were administered together dissolved in 75 uL of physiological saline. PT was present in the chow of laboratory animals. The PT dose was adjusted based on the animal weight and the amount of food ingested per day.
Functions of the test include evaluating balance, grip strength and motor coordination of the subjects; especially in testing the effect of experimental drugs. For this test (Rota Rod, Harvard Apparatus, Holliston, MA) each animal was given three trials and the maximum period (seconds) that it could remain on a rotating axle (3.5 cm diameter; speed of rotation: 15 rpm) without falling was measured. Each mouse was given up to three attempts for an arbitrary limit of 1200 seconds and the longest period was recorded. Changes over time in the different groups were monitored weekly.
(§5) • Data are presented as mean values f SD for the number of different experiments. • Statistical analyses were performed using Student's t-test. • P<0.05 and **P<0.01 comparing all SOD1 groups versus WT (wild type). • ^+P<0.05 and ^++P<0.01 comparing all SOD1 groups treated with EH301, DXM, IB or their combinations versus SOD1 untreated controls. • ^aP<0.05 and ^aaP<0.01 comparing SOD1+EH301+DXM or SOD1+EH301+IB groups versus SOD1+EH301. • ^bP<0.05 and ^bbP<0.01 comparing SOD1+EH301+DXM or SOD1+EH301+IB groups versus SOD1+DXM • ^cP<0.05 and ^ccP<0.01 comparing SOD1+EH301+DXM or SOD1+EH301+IB groups versus SOD1+IB

SOD1-G93A mice [3] = test: Neurological score (scale of Weydt et al.) in SOD1 mice; type: in vivo, mouse; conditions: scale 0-5
Protocol: as §1, §2, §3, §4
This neurological score is based on the scale of Weydt et al. (Weydt, P., Hong, S. Y., Kliot, M., Moller, T., 2003. Assessing disease onset and progression in the SOD1 mouse model of ALS. NeuroReport 14, 1051-1054). […] When the animals reach a score of “4”, the access to food and water will be facilitated by placing food pellets on the cage floor to all transgenic mice. Reaching a score of “5”, the animals will be euthanized for ethical reasons. Onset is defined as the earliest time when the mice show symptoms (score <4). Changes over time in the different groups were monitored weekly.
as §5

SOD1-G93A mice [4] = test: Survival of SOD1 G93A mice (Kaplan-Meier); type: in vivo, mouse; conditions: for Survival time (surviving mice per group): SOD1 mice
From the text: Mice hemizygous for SOD1-G93A (also called G93A-SOD1) transgene are viable and fertile, with transgenic expression of a G93A mutant form of human SOD1. This founder line (often referred to as G1H) is reported to have a high transgene copy number. […] Motor neuron degeneration has been associated with function and/or degeneration of astrocytes, the major glial cell type of the nervous system. Transgenic mice have an abbreviated life span: 50% survive at 157.1+/−9.3 days (in contrast to the mixed B6SJL background where 50% survival is observed at 128.9+/−9.1 days). Female hemizygotes are poor breeders, and rarely produce more than one litter before the onset of disease. […] The pattern of gene expression in SOD1G93A activated microglia represents a unique ALS-specific signature. These SOD1-G93A (also called G93A-SOD1) transgenic mice us thus useful in studying neuromuscular disorders, including Amyotrophic Lateral Sclerosis.
The SOD1-G93A transgene was designed with a mutant human SOD1 gene (harboring a single amino acid substitution of glycine to alanine at codon 93) driven by its endogenous human SOD1 promoter. This transgene was injected into fertilized B6SJLF1 mouse eggs and founder animals were obtained. Transgenic mice on a mixed B6SJL genetic background were sent to The Jackson Laboratory (as Stock No. 002726). Upon arrival, some mice were backcrossed to C57BL/6J for at least 10 generations to generate this congenic strain (Stock No. 004435). The backcross was completed in July 2002.
as §1, §2, §3, §4, §5

[5] = SOD1-G93A mice, versus control untreated

Structure (SMILES): CC(=O)N[C@@H](CS)C(=O)O [NAC, N-acetylcysteine]
- half-life [1]: about 6 hours
- time to max. plasma level [1]: 2 to 3 h
- survival (FUS-R521C mice; FIG. 3C): about 32 days

Structure (SMILES): C[C@@H]1C[C@H]2[C@@H]3CCC4=CC(=O)C=C[C@]4(C)[C@@]3(F)[C@@H](O)C[C@]2(C)[C@@]1(O)C(=O)CO [DXM, Dexamethasone]
- Rotarod test (maximum period on rotating axle) (SOD1-G93A mice [2]; week 10, 15 rpm): 1200 s
- Rotarod test (maximum period on rotating axle) (SOD1-G93A mice [2]; week 11, 15 rpm): 1200 s
- Rotarod test (maximum period on rotating axle) (SOD1-G93A mice [2]; week 12, 15 rpm): 1200 s
- Rotarod test (maximum period on rotating axle) (SOD1-G93A mice [2]; week 13, 15 rpm): 1200 s
- Rotarod test (maximum period on rotating axle) (SOD1-G93A mice [2]; week 14, 15 rpm): 1200 s
- Rotarod test (maximum period on rotating axle) (SOD1-G93A mice [2]; week 15, 15 rpm): 1130 s
- Rotarod test (maximum period on rotating axle) (SOD1-G93A mice [2]; week 16, 15 rpm): 1045 s
- Rotarod test (maximum period on rotating axle) (SOD1-G93A mice [2]; week 17, 15 rpm): 820 s
- Rotarod test (maximum period on rotating axle) (SOD1-G93A mice [2]; week 18, 15 rpm): 336 s
- Rotarod test (maximum period on rotating axle) (SOD1-G93A mice [2]; week 19, 15 rpm): 225 s
- Rotarod test (maximum period on rotating axle) (SOD1-G93A mice [2]; week 20, 15 rpm): 161 s
- Rotarod test (maximum period on rotating axle) (SOD1-G93A mice [2]; week 21, 15 rpm): 52 s
- Rotarod test (maximum period on rotating axle) (SOD1-G93A mice [2]; week 22, 15 rpm): 0 s
- Neurological score (SOD1-G93A mice [3]; week 10, mean): 0
- Neurological score (SOD1-G93A mice [3]; week 11, mean): 0
- Neurological score (SOD1-G93A mice [3]; week 12, mean): 0
- Neurological score (SOD1-G93A mice [3]; week 13, mean): 0
- Neurological score (SOD1-G93A mice [3]; week 14, mean): 0.50
- Neurological score (SOD1-G93A mice [3]; week 15, mean): 0.70
- Neurological score (SOD1-G93A mice [3]; week 16, mean): 1
- Neurological score (SOD1-G93A mice [3]; week 17, mean): 1
- Neurological score (SOD1-G93A mice [3]; week 18, mean): 1.60
- Neurological score (SOD1-G93A mice [3]; week 19, mean): 2.50
- Neurological score (SOD1-G93A mice [3]; week 20, mean): 3
- Neurological score (SOD1-G93A mice [3]; week 21, mean): 3.40
- Neurological score (SOD1-G93A mice [3]; week 22, mean): 4
- Survival time (surviving mice per group) (SOD1-G93A mice [4]; week 10): 10
- Survival time (surviving mice per group) (SOD1-G93A mice [4]; week 11): 10
- Survival time (surviving mice per group) (SOD1-G93A mice [4]; week 12): 9
- Survival time (surviving mice per group) (SOD1-G93A mice [4]; week 13): 9
- Survival time (surviving mice per group) (SOD1-G93A mice [4]; week 14): 9
- Survival time (surviving mice per group) (SOD1-G93A mice [4]; week 15): 9
- Survival time (surviving mice per group) (SOD1-G93A mice [4]; week 16): 9
- Survival time (surviving mice per group) (SOD1-G93A mice [4]; week 17): 9
- Survival time (surviving mice per group) (SOD1-G93A mice [4]; week 18): 9
- Survival time (surviving mice per group) (SOD1-G93A mice [4]; week 19): 9
- Survival time (surviving mice per group) (SOD1-G93A mice [4]; week 20): 7
- Survival time (surviving mice per group) (SOD1-G93A mice [4]; week 21): 4
- Survival time (surviving mice per group) (SOD1-G93A mice [4]; week 22): 1
- Survival time (surviving mice per group) (SOD1-G93A mice [4]; week 23): 0

Structure (SMILES): CC(C)C(=O)c1c(C(C)C)nn2ccccc12 [IBU, 2-methyl-1-(2-(1-methylethyl)pyrazolo(1,5-a)pyridin-3-yl)1-propanone]
- motor coordination / motor-neuron dependent functions (in words) (SOD1-G93A mice [2]; [5]): some improvement
- Rotarod test (maximum period on rotating axle) (SOD1-G93A mice [2]; week 10, 15 rpm): 1200 s
- Rotarod test (maximum period on rotating axle) (SOD1-G93A mice [2]; week 11, 15 rpm): 1200 s
- Rotarod test (maximum period on rotating axle) (SOD1-G93A mice [2]; week 12, 15 rpm): 1200 s
- Rotarod test (maximum period on rotating axle) (SOD1-G93A mice [2]; week 13, 15 rpm): 1200 s
- Rotarod test (maximum period on rotating axle) (SOD1-G93A mice [2]; week 14, 15 rpm): 1200 s
- Rotarod test (maximum period on rotating axle) (SOD1-G93A mice [2]; week 15, 15 rpm): 1200 s
- Rotarod test (maximum period on rotating axle) (SOD1-G93A mice [2]; week 16, 15 rpm): 1200 s
- Rotarod test (maximum period on rotating axle) (SOD1-G93A mice [2]; week 17, 15 rpm): 926 s
- Rotarod test (maximum period on rotating axle) (SOD1-G93A mice [2]; week 18, 15 rpm): 544 s
- Rotarod test (maximum period on rotating axle) (SOD1-G93A mice [2]; week 19, 15 rpm): 197 s
- Rotarod test (maximum period on rotating axle) (SOD1-G93A mice [2]; week 20, 15 rpm): 102 s
- Rotarod test (maximum period on rotating axle) (SOD1-G93A mice [2]; week 21, 15 rpm): 30 s
- Rotarod test (maximum period on rotating axle) (SOD1-G93A mice [2]; week 22, 15 rpm): 0 s
- Neurological score (SOD1-G93A mice [3]; week 10, mean): 0
- Neurological score (SOD1-G93A mice [3]; week 11, mean): 0
- Neurological score (SOD1-G93A mice [3]; week 12, mean): 0
- Neurological score (SOD1-G93A mice [3]; week 13, mean): 0
- Neurological score (SOD1-G93A mice [3]; week 14, mean): 0
- Neurological score (SOD1-G93A mice [3]; week 15, mean): 0.30
- Neurological score (SOD1-G93A mice [3]; week 16, mean): 0.75
- Neurological score (SOD1-G93A mice [3]; week 17, mean): 1
- Neurological score (SOD1-G93A mice [3]; week 18, mean): 1.50
- Neurological score (SOD1-G93A mice [3]; week 19, mean): 2.20
- Neurological score (SOD1-G93A mice [3]; week 20, mean): 3
- Neurological score (SOD1-G93A mice [3]; week 21, mean): 3.70
- Neurological score (SOD1-G93A mice [3]; week 22, mean): 4
- mean survival (SOD1-G93A mice [4]; SOD1-G93A mice treated from day 50): 137 days
- survival (in words) (SOD1-G93A mice [4]; [5]): some improvement
- Survival time (surviving mice per group) (SOD1-G93A mice [4]; week 10): 10
- Survival time (surviving mice per group) (SOD1-G93A mice [4]; week 11): 10
- Survival time (surviving mice per group) (SOD1-G93A mice [4]; week 12): 10
- Survival time (surviving mice per group) (SOD1-G93A mice [4]; week 13): 10
- Survival time (surviving mice per group) (SOD1-G93A mice [4]; week 14): 10
- Survival time (surviving mice per group) (SOD1-G93A mice [4]; week 15): 10
- Survival time (surviving mice per group) (SOD1-G93A mice [4]; week 16): 10
- Survival time (surviving mice per group) (SOD1-G93A mice [4]; week 17): 10
- Survival time (surviving mice per group) (SOD1-G93A mice [4]; week 18): 10
- Survival time (surviving mice per group) (SOD1-G93A mice [4]; week 19): 8
- Survival time (surviving mice per group) (SOD1-G93A mice [4]; week 20): 4
- Survival time (surviving mice per group) (SOD1-G93A mice [4]; week 21): 3
- Survival time (surviving mice per group) (SOD1-G93A mice [4]; week 22): 1
- Survival time (surviving mice per group) (SOD1-G93A mice [4]; week 23): 0
- survival (FUS-R521C mice; FIGS. 3A-3C, end of study 45 weeks): about 30 weeks
